This experiment concerns the target MAPK14;MAPK11;MAPK12 (human) (UniProt Q16539). Put plainly: Inhibition of p38 Kinase Activity.

Structures are written as SMILES.

As a reminder, the IC50 is the point on the concentration scale where inhibition reaches its midpoint. Turning to `Cc1ccc(C)c(CN2CC[C@H](Nc3nc(Nc4cc(C(N)=O)ccc4C)nc(N(C)CC(C)C)n3)C2)c1`, the IC50 is under 1000 nM.

Regarding `CCONC(=O)c1ccc(C)c(Nc2nc(NC)nc(N(C)CC(C)(C)C)n2)c1`, the IC50 was under 1000 nM.

`Cc1ccc(C(N)=O)cc1Nc1nc(N[C@H]2CCCNC2)nc(N(C)CC(C)C)n1` came in with an IC50 of under 1000 nM.

Compound `Cc1ccc(CNC(C)C)cc1Nc1nc(N[C@H]2CCNC2)nc(N(C)CC(C)(C)C)n1` yielded an IC50 of under 1000 nM.

Consider `NC(=O)CNc1nc(Nc2ccc3ncsc3c2)nc(NC2CCc3ccccc32)n1` (configuration not stated), for which the 50% inhibitory concentration (IC50) is under 10000 nM.

Take `CC(CNc1nc(Nc2ccc3ncsc3c2)nc(N2CC3CC2CN3S(=O)(=O)N(C)C)n1)c1ccccc1` (configuration not stated): the IC50 was under 10000 nM.

`Cc1ccc(C(N)=O)cc1Nc1nc(N[C@H]2CCN(CCC#N)C2)nc(N(C)CC(C)(C)C)n1`: the half-maximal inhibitory concentration (IC50) was under 1000 nM.

`Cc1ccc(C(=O)NCC(F)(F)F)cc1Nc1nc(N[C@H]2CCNC2)nc(N(C)CC(C)C)n1` registered a concentration for half-maximal inhibition (IC50) of under 1000 nM.

The compound `Cc1ccc(C(N)=O)cc1Nc1nc(N[C@H]2CCCC[C@H]2O)nc(N(C)CC(C)C)n1` displayed a half-maximal inhibitory concentration (IC50) of under 1000 nM.

Compound `Cc1ccc(C(N)=O)cc1Nc1nc(N[C@H]2CCN(Cc3cccc(O)c3)C2)nc(N(C)CC(C)C)n1` displayed an IC50 of under 1000 nM.

Consider `CCNC(=O)c1ccc(C)c(Nc2nc(NC[C@H]3CCCN3)nc(N(C)CC(C)C)n2)c1`, for which the concentration for half-maximal inhibition (IC50) was under 1000 nM.

`c1ccc2c(c1)CCN(c1nc(Nc3ccc4ncsc4c3)nc(N3CCNCC3)n1)C2` registered an IC50 of under 10000 nM.

`CC(C)c1nc(Cl)nc(Nc2ccc3ncsc3c2)n1` had a half-maximal inhibitory concentration (IC50) of under 10000 nM.

As for `Nc1nc(NCCc2ccccc2)nc(Nc2ccc(S(=O)(=O)Nc3ncccn3)cc2)n1`, the IC50 is under 10000 nM.

`CNCCN(C)c1nc(NC[C@@H](C)c2ccccc2)nc(-n2cnc3ccccc32)n1` registered a 50% inhibitory concentration (IC50) of under 10000 nM.

`CNC(=O)c1ccc(C)c(Nc2nc(NC[C@H]3CCCN3)nc(N(C)CC(C)(C)C)n2)c1` yielded an IC50 of under 1000 nM.

In turn, `CONC(=O)c1ccc(C)c(Nc2nc(NCC3CCC(=O)N3)nc(N(C)CC(C)(C)C)n2)c1` (configuration not stated) returned an IC50 of under 1000 nM.

`CC(=O)N1CCN(c2nc(NC[C@@H]3CC[C@H]4C[C@@H]3C4(C)C)nc(Nc3ccc4ncsc4c3)n2)CC1`: the IC50 is under 10000 nM.

For the compound `CCCC1(C)CCN(c2nc(Nc3cc(C(=O)NC)ccc3C)nc(N[C@@H]3CCNC3)n2)C1` (some centres not stated), the IC50 was under 1000 nM.

Regarding `CN1CCCN(c2nc(Sc3cc(C(N)=O)ccc3F)nc(N(C)CC(C)(C)C)n2)CC1`, the IC50 was under 30000 nM.

In turn, `COC1CCCC(C(=O)N(C)CCCN(C)c2nc(NCC(C)c3ccccc3)nc(Nc3ccc4ncsc4c3)n2)C1` (configuration not stated) displayed an IC50 of under 10000 nM.

As to `Cc1ccc(C(N)=O)cc1Nc1nc(NCC(N)=O)nc(NCC(C)c2ccccc2)n1` (configuration not stated), the IC50 is under 1000 nM.

In the case of `CC(CNc1nc(Nc2ccc3ncsc3c2)nc(N2CCN(S(=O)(=O)N(C)C)CC2)n1)c1ccccc1` (configuration not stated), the half-maximal inhibitory concentration (IC50) is under 10000 nM.

As for `CCN1CC[C@@H](Nc2nc(Nc3cc(C(=O)NOC)ccc3C)nc(N(C)CC(C)(C)C)n2)C1`, the half-maximal inhibitory concentration (IC50) is under 1000 nM.

`Cc1ccc(C(N)=O)cc1Nc1nc(NCC(C)c2ccccc2)nc(N[C@H]2CCNC2)n1` (some centres not stated) gave a half-inhibitory concentration (IC50) of under 1000 nM.

`CCONC(=O)c1ccc(C)c(Nc2nc(N(C)CC(C)(C)C)cc(N3CCCN(C)CC3)n2)c1`: the IC50 is under 1000 nM.

Turning to `Cc1ccc(C(N)=O)cc1Nc1nc(N[C@H]2CCN(S(C)(=O)=O)C2)nc(N(C)CC(C)C)n1`, the IC50 is under 1000 nM.

Take `CNC(=O)c1ccc(C)c(Sc2nc(N[C@@H]3CCNC3)nc(N(C)CC(C)(C)C)n2)c1`: the concentration for half-maximal inhibition (IC50) was under 30000 nM.

`CC1(C)C2CCC(CNc3nc(Nc4ccc5scnc5c4)nc(N4CCNCC4)n3)C1C2` (configuration not stated) gave an IC50 of under 10000 nM.

Take `Cc1ccc(C(N)=O)cc1Nc1nc(NC2CCS(=O)(=O)C2)nc(N(C)CC(C)(C)C)n1` (configuration not stated): the IC50 was under 1000 nM.

For the compound `Cc1ccccc1NC(=O)c1ccc(C)c(Nc2nc(N[C@H]3CCNC3)nc(N(C)CC(C)(C)C)n2)c1`, the 50% inhibitory concentration (IC50) was under 1000 nM.

Turning to `CC1(C)[C@H]2CC[C@H](CNc3nc(Nc4ccc5ncsc5c4)nc(N4CCNCC4)n3)[C@@H]1C2`, the IC50 is under 10000 nM.

The record behind these values is the Kinase Knowledgebase extract (Sharma et al. 2016).
